Measurements reported in PubChem BioAssay (NCI).
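Step 1: Grow cells in 96-well plates. Step 2: Expose to compound for 48 hours at 5 concentrations. Step 3: Interpolate endpoints linearly; if unreached, use highest concentration. TGI denotes the concentration required for complete inhibition of growth.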

Legend:
Test in all cases: DTP human tumour cell line panel, 48 h
RXF-631 renal = test system: RXF-631 renal
MOLT-4 leukemia = test system: MOLT-4 leukemia
SNB-19 CNS = test system: SNB-19 CNS
IGROV1 ovarian = test system: IGROV1 ovarian
OVCAR-5 ovarian = test system: OVCAR-5 ovarian
HS 578T breast = test system: HS 578T breast
HOP-62 NSCLC = test system: HOP-62 NSCLC
OVCAR-4 ovarian = test system: OVCAR-4 ovarian
U251 CNS = test system: U251 CNS
HCT-15 colon = test system: HCT-15 colon
DU-145 prostate = test system: DU-145 prostate
OVCAR-8 ovarian = test system: OVCAR-8 ovarian
UACC-62 melanoma = test system: UACC-62 melanoma
DLD-1 colon = test system: DLD-1 colon
TK-10 renal = test system: TK-10 renal
DMS 273 small cell lung = test system: DMS 273 small cell lung
SF-268 CNS = test system: SF-268 CNS
RPMI-8226 leukemia = test system: RPMI-8226 leukemia
ACHN renal = test system: ACHN renal
HCT-116 colon = test system: HCT-116 colon
KM20L2 colon = test system: KM20L2 colon
DMS 114 small cell lung = test system: DMS 114 small cell lung
SF-295 CNS = test system: SF-295 CNS
NCI-H23 lung = test system: NCI-H23 lung
SK-OV-3 ovarian = test system: SK-OV-3 ovarian
T-47D breast = test system: T-47D breast
SK-MEL-28 melanoma = test system: SK-MEL-28 melanoma
NCI/ADR-RES ovarian = test system: NCI/ADR-RES ovarian
SNB-78 CNS = test system: SNB-78 CNS
COLO 205 colon = test system: COLO 205 colon
M14 melanoma = test system: M14 melanoma
MCF7 breast = test system: MCF7 breast
SR leukemia = test system: SR leukemia
NCI-H522 lung = test system: NCI-H522 lung
NCI-H460 lung = test system: NCI-H460 lung
PC-3 prostate = test system: PC-3 prostate
LXFL 529 NSCLC = test system: LXFL 529 NSCLC
SK-MEL-2 melanoma = test system: SK-MEL-2 melanoma
EKVX NSCLC = test system: EKVX NSCLC
HL-60(TB) leukemia = test system: HL-60(TB) leukemia
MALME-3M melanoma = test system: MALME-3M melanoma
CAKI-1 renal = test system: CAKI-1 renal
786-0 renal = test system: 786-0 renal
SW-620 colon = test system: SW-620 colon
SNB-75 CNS = test system: SNB-75 CNS
OVCAR-3 ovarian = test system: OVCAR-3 ovarian
LOX IMVI melanoma = test system: LOX IMVI melanoma
HOP-92 NSCLC = test system: HOP-92 NSCLC
UACC-257 melanoma = test system: UACC-257 melanoma
K-562 leukemia = test system: K-562 leukemia
HT29 colon = test system: HT29 colon
UO-31 renal = test system: UO-31 renal
XF 498 CNS = test system: XF 498 CNS
BT-549 breast = test system: BT-549 breast
MDA-MB-435 = test system: MDA-MB-435
MDA-MB-231 breast = test system: MDA-MB-231 breast
SF-539 CNS = test system: SF-539 CNS
SK-MEL-5 melanoma = test system: SK-MEL-5 melanoma
CCRF-CEM leukemia = test system: CCRF-CEM leukemia
NCI-H226 lung = test system: NCI-H226 lung
M19-MEL melanoma = test system: M19-MEL melanoma
A498 renal = test system: A498 renal
HOP-18 NSCLC = test system: HOP-18 NSCLC
SN12C renal = test system: SN12C renal
HCC-2998 colon = test system: HCC-2998 colon
A549 NSCLC = test system: A549 NSCLC
KM12 colon = test system: KM12 colon
RXF 393 renal = test system: RXF 393 renal

## COc1ccc(/C=C2\CCC(CN(C)C)C2=O)cc1OC (stereo not drawn)
RXF-631 renal
  TGI: 16.3 µM
MOLT-4 leukemia
  TGI: 7.35 µM
SNB-19 CNS
  TGI: 30.6 µM
IGROV1 ovarian
  TGI: 33.1 µM
OVCAR-5 ovarian
  TGI: 29.8 µM
HS 578T breast
  TGI: > 100 µM
HOP-62 NSCLC
  TGI: 39.9 µM
OVCAR-4 ovarian
  TGI: 18.4 µM
U251 CNS
  TGI: 30.8 µM
HCT-15 colon
  TGI: 8.81 µM
DU-145 prostate
  TGI: 20.4 µM
OVCAR-8 ovarian
  TGI: 8.25 µM
UACC-62 melanoma
  TGI: 12.7 µM
DLD-1 colon
  TGI: 8.83 µM
TK-10 renal
  TGI: 18.7 µM
DMS 273 small cell lung
  TGI: 29.8 µM
SF-268 CNS
  TGI: 27.1 µM
RPMI-8226 leukemia
  TGI: 5.95 µM
ACHN renal
  TGI: 15.9 µM
HCT-116 colon
  TGI: 7.01 µM
KM20L2 colon
  TGI: 32.3 µM
DMS 114 small cell lung
  TGI: 34.3 µM
SF-295 CNS
  TGI: 29.2 µM
NCI-H23 lung
  TGI: 32.3 µM
SK-OV-3 ovarian
  TGI: 33.7 µM
T-47D breast
  TGI: 44.5 µM
SK-MEL-28 melanoma
  TGI: 13.8 µM
NCI/ADR-RES ovarian
  TGI: 7.19 µM
SNB-78 CNS
  TGI: 66.4 µM
COLO 205 colon
  TGI: 10.6 µM
M14 melanoma
  TGI: 16.1 µM
MCF7 breast
  TGI: 8.51 µM
SR leukemia
  TGI: 9.26 µM
NCI-H522 lung
  TGI: 4.23 µM
NCI-H460 lung
  TGI: 26.6 µM
PC-3 prostate
  TGI: 13.9 µM
LXFL 529 NSCLC
  TGI: 6.7 µM
SK-MEL-2 melanoma
  TGI: 26.9 µM
EKVX NSCLC
  TGI: 34.1 µM
HL-60(TB) leukemia
  TGI: 8.62 µM
MALME-3M melanoma
  TGI: 11.7 µM
CAKI-1 renal
  TGI: 10 µM
786-0 renal
  TGI: 6.42 µM
SW-620 colon
  TGI: 4.44 µM
SNB-75 CNS
  TGI: 30.5 µM
OVCAR-3 ovarian
  TGI: 15.8 µM
LOX IMVI melanoma
  TGI: 3.96 µM
HOP-92 NSCLC
  TGI: 21 µM
UACC-257 melanoma
  TGI: 17 µM
K-562 leukemia
  TGI: 9.12 µM
HT29 colon
  TGI: 23.5 µM
UO-31 renal
  TGI: 24.6 µM
XF 498 CNS
  TGI: 26.3 µM
BT-549 breast
  TGI: 14.3 µM
MDA-MB-435
  TGI: 16.1 µM
MDA-MB-231 breast
  TGI: 7.71 µM
SF-539 CNS
  TGI: 25 µM
SK-MEL-5 melanoma
  TGI: 23.9 µM
CCRF-CEM leukemia
  TGI: 6.74 µM
NCI-H226 lung
  TGI: 28.2 µM
M19-MEL melanoma
  TGI: 24.4 µM
A498 renal
  TGI: 27.8 µM
HOP-18 NSCLC
  TGI: 35.1 µM
SN12C renal
  TGI: 8.35 µM
HCC-2998 colon
  TGI: 14.5 µM
A549 NSCLC
  TGI: 37.4 µM
KM12 colon
  TGI: 10.8 µM
RXF 393 renal
  TGI: 5.16 µM
